The structures appear in SMILES notation. Structures can show the parent of a compound that is named as a salt.

Ten compounds from patent publication US9216968B2, “Heterocyclic derivative and pharmaceutical drug” (NIPPON SHINYAKU CO., LTD., priority 2011, dated 2015) can be followed below.

One assay has as its target human mPGES-1 (Homo sapiens (Human), UniProt O14684). As to the kind of experiment: mPGES-1 inhibiting activity (microsome fractions, PGE2 by HTRF). It is filed as biochemical. The following applies: microsomes from CHO-K1 cells transfected with human mPGES-1; PGH2 1 μM, 4° C., 60 seconds; read-out: mPGES-1 Inhibition IC50. The method in brief:
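PGE2 formation read by HTRF after 60 s at 4 °C with 1 μM PGH2 substrate, following 20 min compound preincubation (1% DMSO) with human mPGES-1 microsomes from transfected CHO-K1 cells. Buffer: potassium phosphate, reduced glutathione, pH 7.4; IC50 from activity relative to enzyme-free blank.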
Background: In TR-FRET formats the signal depends on donor and acceptor labels being close together.

The subject of another assay is A549 cells. As to the kind of experiment: Inhibition of PGE2 production in A549 cell (IL-1β stimulated). It is filed as cell-based, human. As to conditions: Homo sapiens, A549, 24 h, IL-1β 5 ng/well, PGE2 in culture medium. As to the method: Human A549 cells were seeded onto a 96-well plate at 2×10^4 cells/100 μL per well and allowed to incubate overnight. After removing the culture medium and washing with phosphate buffered saline, the culture medium was replaced by RPMI culture medium with 3% FBS containing a DMSO solution containing test compound or DMSO alone (such that DMSO final concentration would be […] in each). After incubation for 60 minutes, IL-1β (5 ng/well) was added and incubated at 37° C. for 24 hours. Then, PGE2 in the culture medium was measured using HTRF kit (Cisbio International, catalogue #62P2APEC), and PGF2α in the culture medium was measured using EIA kit (Cayman Chemical Company, catalogue #516011). The solution free of test compound was used as positive control, and the solution free of test compound and IL-1β was used as negative control. 100% activity was defined as PGE2 and PGF2α production in the positive control minus PGE2 and PGF2α production in the negative control. IC50 value was calculated by standard method.

Sequence of human mPGES-1 (O14684 whole entry): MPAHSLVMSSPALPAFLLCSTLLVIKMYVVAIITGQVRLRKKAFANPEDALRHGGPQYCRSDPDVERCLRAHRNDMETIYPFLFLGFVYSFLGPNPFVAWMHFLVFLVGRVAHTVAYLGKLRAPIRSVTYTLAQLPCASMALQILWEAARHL

As to `COCc1nc2c(C(=O)Nc3cccc(Cl)c3C)cc(NC(=O)c3c(C)cccc3Cl)cc2[nH]1` [Example 104, N-(3-Chloro-2-methylphenyl)-6-{[(2-chloro-6-methylphenyl)carbonyl]amino}-2-(methoxymethyl)-1H-benzimidazole-4-carboxamide hydrochloride], the IC50 at human mPGES-1 is 2.9 nM; in the assay on A549 cells, 71.1 nM.

Regarding `Cc1c(Cl)cccc1NC(=O)c1cc(NC(=O)c2ccccc2C(F)(F)F)cc2[nH]c(C3CN(C(=O)OC(C)(C)C)C3)nc12` [Example 61, tert-Butyl 3-{4-[(3-chloro-2-methylphenyl)carbamoyl]-6-({[2-(trifluoromethyl)phenyl]carbonyl}amino)-1H-benzimidazol-2-yl}azetidine-1-carboxylate], the IC50 amounted to 3.2 nM on human mPGES-1 and 66.7 nM in the assay with A549 cells.

As for `CCc1nc2c(C(=O)NCc3ccccc3C(F)(F)F)cc(NC(=O)c3ccccc3C(F)(F)F)cc2[nH]1` [Example 19, 2-Ethyl-N-[2-(trifluoromethyl)benzyl]-6-({[2-(trifluoromethyl)phenyl]carbonyl}amino)-1H-benzimidazole-4-carboxamide], the IC50 at human mPGES-1 worked out at 9.4 nM; in the assay with A549 cells, 47.8 nM.

As to `COCc1nc2c(C(=O)Nc3ccccc3Cc3ccccc3)cc(NC(=O)c3ccccc3C(F)(F)F)cc2[nH]1` [Example 229, N-(2-Benzylphenyl)-2-(methoxymethyl)-6-({[2-(trifluoromethyl)phenyl]carbonyl}amino)-1H-benzimidazole-4-carboxamide hydrochloride], the IC50 was found to be 2.3 nM at human mPGES-1 and 39 nM with A549 cells.

For the compound `CCOc1nc2c(C(=O)NCc3ccccc3C(F)(F)F)cc(NC(=O)c3ccccc3C(F)(F)F)cc2[nH]1` [Example 56, 2-Ethoxy-N-[2-(trifluoromethyl)benzyl]-6-({[2-(trifluoromethyl)phenyl]carbonyl}amino)-1H-benzimidazole-4-carboxamide], the IC50 worked out at 7.5 nM on human mPGES-1 and 85 nM in the assay with A549 cells.

Consider `COCc1nc2c(C(=O)Nc3nc4ccc(Cl)cc4o3)cc(NC(=O)c3ccccc3C(F)(F)F)cc2[nH]1` [Example 233, N-(6-Chloro-1,3-benzoxazol-2-yl)-2-(methoxymethyl)-6-({[2-(trifluoromethyl)phenyl]carbonyl}amino)-1H-benzimidazole-4-carboxamide hydrochloride], for which the figures for the IC50 at human mPGES-1 and with A549 cells were 2.5 nM and 195 nM, respectively.

As to `CCCC(C)(C)c1nc2c(C(=O)Nc3cccc(Cl)c3C)cc(NC(=O)c3ccccc3C(F)(F)F)cc2[nH]1` [Example 84, N-(3-Chloro-2-methylphenyl)-2-(2-methylpentan-2-yl)-6-({[2-(trifluoromethyl)phenyl]carbonyl}amino)-1H-benzimidazole-4-carboxamide hydrochloride], the results for the IC50 at human mPGES-1 and in the assay on A549 cells were 0.8 nM and 6.5 nM, respectively.

With `Cc1c(Cl)cccc1NC(=O)c1cc(NC(=O)c2c(F)cccc2Cl)cc2[nH]c(N[C@H](CO)C(C)C)nc12` [Example 201, 6-{[(2-Chloro-6-fluorophenyl)-carbonyl]amino}-N-(3-chloro-2-methylphenyl)-2-{[(25)-1-hydroxy-3-methylbutan-2-yl]amino}-1H-benzimidazole-4-carboxamide hydrochloride], the values for the IC50 on human mPGES-1 and in the assay with A549 cells were 0.5 nM and 253 nM, respectively.

As to `Cc1c(Cl)cccc1NC(=O)c1cc(NC(=O)c2c(Cl)cccc2Cl)cc2[nH]c(N(C)C)nc12` [Example 183, N-(3-Chloro-2-methylphenyl)-6-{[(2,6-dichlorophenyl)carbonyl]amino}-2-(dimethylamino)-1H-benzimidazole-4-carboxamide hydrochloride], the values for the IC50 on human mPGES-1 and in the assay with A549 cells were 1.9 nM and 6.1 nM, respectively.

Take `Cc1c(Cl)cccc1NC(=O)c1cc(NC(=O)c2ccccc2C(F)(F)F)cc2[nH]c(NCC(=O)O)nc12` [Example 161, N-{4-[(3-Chloro-2-methylphenyl)carbamoyl]-6-({[2-(trifluoromethyl)phenyl]carbonyl}amino)-1H-benzimidazol-2-yl}glycine hydrochloride]: the IC50 on human mPGES-1 was 3.8 nM; in the assay on A549 cells, above 10000 nM.

The term IC50 denotes the point on the concentration scale where inhibition reaches its midpoint.
